pIC50: −log10 of the molar value.
Legend:
[1] = tested on: HCT-116; experiment: Cytotoxicity against human HCT-116 cells assessed as cell growth inhibition; type: functional, cell-based
[2] = tested on: HepG2; experiment: Cytotoxicity against human HepG2 cells assessed as cell growth inhibition; type: functional, cell-based
[3] = Cytotoxicity against human MRC5 cells assessed as cell growth inhibition; type: toxicity, cell-based
[4] = Selectivity index, ratio of IC50 for human MRC5 cells to IC50 for human HCT-116 cells; type: toxicity; settings: MRC5 cells versus HCT-116 cells, read-out: Ratio IC50
[5] = Selectivity index, ratio of IC50 for human MRC5 cells to IC50 for human HepG2 cells; type: toxicity; settings: MRC5 cells versus HepG2 cells, read-out: Ratio IC50

SMILES	pIC50 [1]	pIC50 [2]	pIC50 [3]	selectivity ratio [4]	selectivity ratio [5]
COc1c(O)ccc2c(=O)c3cccc(C)oc=3c(=O)c12	5.59	5.72	5.09	3.1	4.1
COc1ccc2c(c1OC)C(=O)c1cc(C)ccc1C2=O	< 5.00	< 5.00	< 5.00	–	–
COc1c(O)ccc2c1C(=O)c1cc(C)ccc1C2=O	< 5.00	< 5.00	< 5.00	–	–
COc1ccc2c(=O)c3cccc(C)oc=3c(=O)c2c1OC	5.37	5.19	< 5.00	2.9	1.9
COc1cccc2c1C(=O)c1c(O)c3c(c(O)c1C2=O)C[C@@](O)(C(=O)CO)C[C@@H]3O[C@H]1C[C@H](N)[C@H](O)[C@H](C)O1 [DOXORUBICIN]	–	6.15	5.46	–	–

Reference: ChEMBL document CHEMBL5385957, “Pleonotoquinones, Cytotoxic Oxepinenaphthoquinones from Pleonotoma jasminifolia” (J Nat Prod, 2024)
